Laboratory results: PubChem BioAssay AID540258 (Broad Institute, 2011)
Calls of active or inactive are those of the source.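 How the source made its calls: active means fitted curve reaching 40% activation at or below the top valid dose tested; inconclusive means flat curve at 30 to 70% activation, or poor fit; inactive means the rest.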

tested on: SK-MEL-5 TRPM1 promoter luciferase reporter, 24 h; experiment: MITF activators via TRPM1 promoter reporter, dose response, SK-MEL-5 cells, luciferase, cherry-pick samples (AID 540258);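 further: potency for activators that raise TRPM1 promoter luciferase signal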

In order of rising AC40:
1. CCCc1cc(-c2ccc3c(c2)COc2c4ccccc4nn2-3)on1  0.145 µM
2. Cc1ccc(NC(=O)c2sc3nc(C)cc(C)c3c2N)cc1  0.205 µM
3. Cc1ccc(-c2cc(-c3ccc(C)cc3O)[nH]n2)cc1  0.342 µM
4. CC(C)(C)c1ccc(C(=O)Nc2ccc(F)cc2)s1  0.374 µM
5. COC(=O)c1ccc(-c2ccc(Cl)cc2)nc1C  0.475 µM
6. O=C(O)c1ccc(N/N=C/c2cccc(C(F)(F)F)c2)cc1  0.488 µM
7. COc1cccc(N(C(=O)c2nc3nccc(C)n3n2)c2nc3ccccc3s2)c1  0.495 µM
8. O=C(N/N=C\c1cccc(Cl)c1)c1n[nH]c2c1CCCC2  0.504 µM
9. Cc1cc(C)c(NN=c2c(=O)c3ccccc3c2=O)c(C)c1  0.531 µM
10. Brc1ccc(OCc2cn3ccccc3n2)cc1  0.592 µM
11. C=CCNc1nc(-c2ccc(Cl)cc2)cs1  0.639 µM
12. CC/C(=N\NC(=O)c1csc(C)c1C)c1cccs1  0.733 µM
13. COc1ccc(-c2ccc(C(=O)C3CC3)cc2)cc1  0.775 µM
14. CCN=c1scc(-c2ccc(F)cc2)n1/N=C/c1ccccn1  0.798 µM
15. c1ccc2c(c1)CC/C2=N/Nc1nc2ccccc2[nH]1  0.86 µM
16. COc1ccc(C(=O)/C=C/Nc2cccc(C)n2)cc1OC  0.977 µM
17. Cc1ccc(-c2cn(-c3ccccc3)c(=S)[nH]2)cc1C  0.997 µM
18. O=C(CCNc1ccccc1)c1ccc2c(c1)OCO2  1.12 µM
19. CN(C(=O)c1cc(-c2ccccc2)on1)C1CCCCC1  1.12 µM
20. CC1CCCC(C)N1C(=O)c1cc(-c2ccc3c(c2)OCO3)on1 (stereo not given)  1.25 µM
21. COc1ccc(-c2ccc3ccccc3n2)cc1OC  1.38 µM
22. COc1ccc(/C=C2\SC(=O)N(CCNC(=O)C3CC4C=CC3C4)C2=O)cc1 (stereo not given)  1.39 µM
23. Cc1ccc(Sc2cnc3ccccc3n2)cc1  1.43 µM
24. Clc1ccc(-c2cc(CSc3ccccc3)on2)cc1  1.45 µM
25. Clc1ccc(OCc2noc(-c3ccsc3)n2)c(Cl)c1  1.45 µM
26. COc1cccc(Nc2ccc(N3CCCCC3)cc2)c1OC  1.48 µM
27. CCN(CC)C(=O)c1cc(-c2ccc(Br)cc2)on1  1.63 µM
28. O=C(Nc1ccccc1)N1CCC(c2ccccc2)C1 (stereo not given)  1.8 µM
29. CN1C(=O)C2C=CC1C1C(=O)N(c3ccccc3)C(=O)C21 (stereo not given)  1.89 µM
30. CCN(CC)C(=O)CCc1nnc(Cc2cccc(C(F)(F)F)c2)o1  1.95 µM
31. O=C(Cc1ccccn1)c1ccc(Cl)cc1  1.98 µM
32. O=C1OC(c2ccccc2)=C/C1=C/N1CCCCC1  2.12 µM
33. COc1ccc(-c2nnn(Cc3ccccc3F)n2)cc1  2.14 µM
34. C=CCNC(=O)c1ccc2nc(Cc3ccc(OC)cc3)oc2c1  2.37 µM
35. COc1ccc(Nc2nc(N)c3ccccc3n2)c(OC)c1  2.4 µM
36. CCN(CC)C(=O)c1cc2sc3ccccc3c2s1  2.42 µM
37. c1ccc(Cc2cc(-c3ccccc3)on2)cc1  2.58 µM
38. Cc1ccc(OCc2cc(C(=O)N3CC4C[C@@H]5CC3C[C@H](C4)C5)no2)cc1C  2.61 µM
39. Cc1cccc(NC(=O)c2sc3nc(N)c(C#N)cc3c2N)c1  2.61 µM
40. Cc1cccc2c1-c1sc(C(=O)N3CCCCC3)cc1CO2  2.7 µM
41. Cc1cccc(C(=O)Oc2ccc(/C=N/O)cc2)c1  2.74 µM
42. CCCc1nc2ccc(NC(C)=O)cc2c(=O)n1Cc1ccc(Cl)cc1  2.92 µM
43. COc1cccc2sc3ccc(C#CC4(O)CCCCC4)cc3c(=O)c12  2.94 µM
44. CS(=O)(=O)N1N=C(c2ccc(Br)cc2)CC1c1ccc2c(c1)OCO2 (stereo not given)  2.95 µM
45. COc1ccc(/C=N/Nc2ccccn2)cc1O  3.01 µM
46. COc1ccc(NC(=O)Nc2ccc(Br)cn2)cc1  3.15 µM
47. CC(=O)Nc1nnc(COc2ccc(Cl)cc2)s1  3.16 µM
48. CC(=O)NCCC1CCCCN1C(=O)c1cc(COc2cc(C)ccc2C)on1 (stereo not given)  3.2 µM
49. Cc1nn(-c2ccc(N3CCCCC3)nn2)c(C)c1CCC(=O)Nc1cccc(F)c1  3.23 µM
50. COc1ccc(-c2nn(-c3ccccc3)cc2C#N)cc1  3.24 µM
51. CCCn1nnc2sc3c(c2c1=O)CCC(C)C3 (stereo not given)  3.32 µM
52. CC(C)(C)c1ccc(-c2cc(C(=O)NNC(=O)Nc3ccccc3)c3ccccc3n2)cc1  3.33 µM
53. c1cncc(-c2nc3ccccc3s2)c1  3.8 µM
54. Cc1nc(C(C)NC(=O)CCc2nnc(CCCc3ccccc3)o2)c(C)s1 (stereo not given)  3.83 µM
55. COc1ccc(NC(=O)CCCn2c(=O)oc3ccccc32)cc1Cl  3.94 µM
56. C/C(=N\Nc1ccccn1)c1ccc(C(C)C)cc1  4.34 µM
57. Cc1ccc(NC(=O)C2C3/C=C\CCCCC32)cc1 (stereo not given)  4.54 µM
58. COc1ccc2cc(C(N)=O)c(=Nc3ccccc3)oc2c1  4.54 µM
59. O=C(c1cccs1)N1CCn2c1nc1ccccc12  4.69 µM
60. Nc1ccc2oc(-c3cccs3)nc2c1  4.75 µM
61. Nc1nc(COc2ccc3ccccc3c2)cs1  4.97 µM
62. COc1ccc(NC(=O)n2ncc3cc(Cl)ccc32)cc1OC  5.31 µM
63. CN(C)C(CNC(=O)c1cc2ccccc2oc1=O)c1ccccc1 (stereo not given)  5.72 µM
64. Cc1ccc(-c2csc(NC(=O)c3ccc(Br)cc3)c2C(=O)O)cc1  6.1 µM
65. Cn1c(SCc2c(F)cccc2Cl)nnc1-c1cnccn1  6.16 µM
66. O=C(Cn1c(/C=C/c2ccccc2)nc2ccccc21)Nc1ccc(F)cc1  6.45 µM
67. Cc1ccc(N2C(=O)S/C(=C/c3cn(C)c4ccccc34)C2=O)cc1  6.5 µM
68. Cc1nc(N)sc1N=Nc1ccc(F)cc1  6.62 µM
69. CC(C)c1ccc(NC(=O)Cn2ncc3ccccc32)cc1  6.86 µM
70. COc1ccc(C(=O)c2ccc(CC#N)s2)cc1  7.07 µM
71. Clc1ccc(-n2nnc(-c3ncc[nH]3)n2)cc1Cl  7.37 µM
72. Cc1cc(NC(=O)Nc2ccc3c(ccn3C)c2)sn1  7.89 µM
73. CCn1c(C(=O)NC2CCC(C)CC2)cc2sccc21 (stereo not given)  8.36 µM
74. Cc1ccccc1-c1nc2cc(Cl)ccc2o1  8.56 µM
75. CCCc1ccc(C(=O)NNc2ccccc2F)cc1  8.64 µM
76. CCc1ccc(C(=O)N/N=C(\C)c2cccnc2)s1  8.9 µM
77. COC(=O)c1cn(CC(=O)NCc2cccs2)c2ccccc12  9.32 µM
78. Clc1ccc(N/N=C/c2cccnc2)cc1  9.36 µM
79. CC1CCN(c2oc(-c3ccccc3Cl)nc2C#N)CC1  10.9 µM
80. NNC(=O)c1ccc2nc(-c3ccc(Br)cc3)cn2c1  11.3 µM
81. COc1ccc2c(c1OC)C(=O)N(c1ccc(C)cc1)C2  12.3 µM
82. C/C(=N\Nc1ccc(C(=O)O)cc1)c1ccc2c(c1)Nc1ccccc1S2  12.8 µM
83. O=C(Nc1ccccc1)Nc1ccc2nnsc2c1  13.1 µM
84. COc1ccc(C(=O)Nc2ccc3c4c(cccc24)CC3)cc1  13.3 µM
85. COc1ccccc1/C=C/C=N/n1c(-c2ccccn2)n[nH]c1=S  13.5 µM
86. c1ccc(-c2ccc3[nH]ccc3c2)cc1  14 µM
87. CCn1cnc2cc(NCc3ccccc3Cl)ccc21  14.6 µM
88. Cc1ccc(N(O)C(=O)NCCCCNC(=O)N(O)c2ccc(C)cc2)cc1  15.5 µM
89. COc1ccc(NC(=O)c2ccc3[nH]c(C)c(C)c3c2)cc1  22.4 µM
90. COc1ccccc1Nc1nc(C)cs1  22.6 µM
91. Cc1cccc(C(=O)Nc2ccn(C)n2)c1  24.4 µM
92. c1ccc2cc(C3CCCCC3)ncc2c1  29.4 µM
93. CC(=O)c1ccc(NC(=O)Nc2ccc3c(c2)nc(C)n3C)cc1  31.2 µM

With `COc1cccc(-c2cc(C(=O)Nc3ccccc3SC)no2)c1` the AC40 was > 35 µM (inactive).
With `CCSc1nnc(NC(=O)NC2CCCCC2)s1` the AC40 was > 35 µM (inactive).
